The results in this text go back to ChEMBL document CHEMBL1201862, “PubChem BioAssay data set” (2004).

Test systems include HCC 2998; SF-295; HCT-15; 786-0; SF-539; K562; HOP-92; KM-20L2; NCI-H23; Malme-3M; NCI-H460; M14; HCT-116; SK-MEL-5; SK-MEL-28; OVCAR-5; KM12; COLO 205.
Experiment in all cases: inhibition of tumour cell growth, NCI panel, 48 h

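Growth conditions: 96-well plates. Treatment: test compound, 48 hours, 5 concentrations. Analysis: linear interpolation between bracketing concentrations; unreached endpoints set to highest concentration. Here, GI50 denotes the concentration required for 50% inhibition of growth.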 The source made the active and inactive calls. No stated cut-off is given here; in the data, active = GI50 up to about 1.1 µM and inactive = higher.

For the compound `O=c1[nH]c2cc([N+](=O)[O-])ccc2nc1/C(=N\NO)C(O)c1ccc([N+](=O)[O-])cc1` (centres undefined), the GI50 in the assay with HCC 2998 was > 100 µM (inactive); with SF-295, > 100 µM (inactive); in the assay on HCT-15, 35.2 µM; in the assay with 786-0, > 100 µM (inactive); in the assay on SF-539, 31.3 µM (inactive); with K562, > 100 µM (inactive). Besides, the GI50 in the assay with HOP-92 is > 100 µM (inactive); with KM-20L2 it was 32.2 µM (inactive); in the assay with NCI-H23 it was > 100 µM (inactive); with Malme-3M, > 100 µM (inactive); with NCI-H460, > 100 µM (inactive); in the assay with M14 it was > 100 µM (inactive). In addition, the GI50 with HCT-116 is > 100 µM (inactive); in the assay with SK-MEL-5, > 100 µM (inactive); in the assay with SK-MEL-28, > 100 µM (inactive); with OVCAR-5, > 100 µM (inactive); with KM12 it was 65 µM (inactive); with COLO 205, > 100 µM (inactive).
In the case of `O=C1c2ccccc2CC1C1(O)C(=O)Nc2ccccc21` (centres undefined), the GI50 was > 100 µM (inactive) with SF-295; > 100 µM in the assay on HCT-15; > 100 µM (inactive) in the assay with 786-0; > 100 µM (inactive) in the assay on SF-539; > 100 µM (inactive) in the assay on K562; > 100 µM (inactive) in the assay with HOP-92. The GI50 in the assay on KM-20L2, in the assay on NCI-H23, with Malme-3M, in the assay with NCI-H460, in the assay on M14 and in the assay on HCT-116 was > 100 µM (inactive) throughout. Besides, the GI50 in the assay on SK-MEL-5, in the assay on SK-MEL-28, with OVCAR-5 and in the assay with COLO 205 was > 100 µM (inactive) throughout.
Regarding `Cc1c(C(=O)CC(=O)C(=O)Nc2c(C(C)C)cccc2C(C)C)[n+]([O-])c2ccccc2[n+]1[O-]`, the GI50 in the assay on HCC 2998 is 5.14 µM (inactive); in the assay with SF-295, 14.8 µM (inactive); with HCT-15, 2.79 µM; with 786-0, 5.21 µM (inactive); in the assay on SF-539 it was 4.43 µM (inactive); in the assay with K562 it was 6.12 µM (inactive). In addition, the GI50 was 16.1 µM (inactive) in the assay with HOP-92; 4.55 µM (inactive) in the assay with KM-20L2; 13.2 µM (inactive) with NCI-H23; 7.19 µM (inactive) in the assay with Malme-3M; 2.62 µM (inactive) in the assay with NCI-H460; 3.4 µM (inactive) with M14. The GI50 is 2.81 µM (inactive) in the assay with HCT-116; 10.4 µM (inactive) in the assay with SK-MEL-5; 13.7 µM (inactive) with SK-MEL-28; 21.3 µM (inactive) in the assay on OVCAR-5; 3.47 µM (inactive) in the assay with KM12; 3.76 µM (inactive) in the assay with COLO 205.
As to `O=C1Nc2cc(F)ccc2C1=O`, the GI50 with HCC 2998 was > 100 µM (inactive); in the assay on SF-295, > 100 µM (inactive); in the assay on HCT-15, > 100 µM; in the assay with 786-0, > 100 µM (inactive); in the assay on SF-539, > 100 µM (inactive); in the assay with K562, > 100 µM (inactive). For the same compound, the GI50 in the assay on HOP-92, in the assay on KM-20L2, with NCI-H23, in the assay with Malme-3M, in the assay with NCI-H460 and with M14 was > 100 µM (inactive) each time. Besides, the GI50 is > 100 µM (inactive) in the assay with SK-MEL-5; > 100 µM (inactive) in the assay with SK-MEL-28; > 100 µM (inactive) in the assay on OVCAR-5; > 100 µM (inactive) in the assay with KM12; 72.3 µM (inactive) with COLO 205.
On to `COc1cc(/C=C2\Cc3ccccc3C2=O)cc(OC)c1OC`, for which the GI50 in the assay with HCC 2998 was > 100 µM (inactive); in the assay on SF-295, > 100 µM (inactive); in the assay with HCT-15, > 100 µM; with 786-0, > 100 µM (inactive); with SF-539 it was > 100 µM (inactive); with K562, > 100 µM (inactive). In addition, the GI50 in the assay with HOP-92 is 77.3 µM (inactive); with KM-20L2 it was > 100 µM (inactive); with NCI-H23 it was > 100 µM (inactive); in the assay with Malme-3M, > 100 µM (inactive); with NCI-H460 it was > 100 µM (inactive); with M14 it was > 100 µM (inactive). Further, the GI50 in the assay on HCT-116, in the assay with SK-MEL-5, in the assay with SK-MEL-28, in the assay with OVCAR-5, in the assay with KM12 and with COLO 205 was > 100 µM (inactive) each time.
For the compound `[O-][S+]1Nc2c(Cl)cc(Cl)c(Cl)c2S1` (centres undefined), the GI50 is > 100 µM (inactive) in the assay on HCC 2998; > 100 µM (inactive) in the assay with SF-295; 44.1 µM in the assay with HCT-15; > 100 µM (inactive) with 786-0; > 100 µM (inactive) in the assay on SF-539; 74.3 µM (inactive) in the assay on K562. For the same compound, the GI50 in the assay with HOP-92 was 35.2 µM (inactive); with KM-20L2, > 100 µM (inactive); with NCI-H23, > 100 µM (inactive); with Malme-3M, > 100 µM (inactive); in the assay with NCI-H460 it was > 100 µM (inactive); in the assay on M14 it was > 100 µM (inactive). The GI50 with HCT-116 is > 100 µM (inactive); with SK-MEL-5 it was 70.6 µM (inactive); in the assay on SK-MEL-28 it was > 100 µM (inactive); with OVCAR-5 it was > 100 µM (inactive); with KM12, > 100 µM (inactive); with COLO 205, > 100 µM (inactive).
As to `CC(Nc1ccc(S(=O)(=O)NC(=N)N)cc1)c1c2ccccc2nc2ccccc12` (centres undefined), the GI50 was 27.5 µM (inactive) in the assay with HCC 2998; 35.2 µM (inactive) in the assay on SF-295; 29.2 µM in the assay on HCT-15; 36 µM (inactive) with 786-0; 22.9 µM (inactive) in the assay with SF-539; 27.6 µM (inactive) in the assay with K562. In addition, the GI50 is 18.5 µM (inactive) in the assay with HOP-92; 31.8 µM (inactive) in the assay on KM-20L2; 22.5 µM (inactive) with NCI-H23; 22.4 µM (inactive) in the assay with Malme-3M; 25.4 µM (inactive) in the assay on NCI-H460; 41 µM (inactive) in the assay with M14. Also, the GI50 in the assay on HCT-116 was > 10 µM (inactive); in the assay with SK-MEL-28 it was 44.9 µM (inactive); in the assay with OVCAR-5, 20.2 µM (inactive); in the assay with KM12, 34.8 µM (inactive); with COLO 205 it was 57.7 µM (inactive).
Consider `CC12OC3(C)OC(=O)C(c4ccccc4)(O1)C3(C)O2` (centres undefined), for which the GI50 was > 100 µM (inactive) with HCC 2998; > 100 µM (inactive) in the assay with SF-295; > 100 µM with HCT-15; > 100 µM (inactive) with 786-0; > 100 µM (inactive) with SF-539; > 100 µM (inactive) with K562. For the same compound, the GI50 in the assay with HOP-92, in the assay on KM-20L2, in the assay with NCI-H23, in the assay on Malme-3M, in the assay with M14 and in the assay with HCT-116 was > 100 µM (inactive) each time. Further, the GI50 with SK-MEL-5, in the assay with SK-MEL-28, in the assay with OVCAR-5, in the assay on KM12 and in the assay with COLO 205 was > 100 µM (inactive) each time.
`O=C(CC(=O)c1cccc([N+](=O)[O-])c1)C(=O)Nc1nc([N+](=O)[O-])cs1`: the GI50 with HCC 2998 was > 100 µM (inactive); in the assay with SF-295, > 100 µM (inactive); in the assay with HCT-15, 79.6 µM; in the assay with 786-0 it was > 100 µM (inactive); with SF-539, > 100 µM (inactive); with K562, 94.8 µM (inactive). Further, the GI50 in the assay with HOP-92, in the assay on KM-20L2, in the assay with NCI-H23, with Malme-3M, in the assay on NCI-H460 and in the assay with M14 was > 100 µM (inactive) each time. Besides, the GI50 with HCT-116, in the assay with SK-MEL-5, with SK-MEL-28, in the assay on OVCAR-5, in the assay with KM12 and with COLO 205 was > 100 µM (inactive) in each case.
Regarding `Cc1ccc2oc(=O)cc(CC(=O)O)c2c1`, the GI50 was > 100 µM (inactive) in the assay with HCC 2998; > 100 µM (inactive) in the assay with SF-295; > 100 µM in the assay on HCT-15; > 100 µM (inactive) in the assay on 786-0; > 100 µM (inactive) with SF-539; > 100 µM (inactive) in the assay on K562. For the same compound, the GI50 in the assay on HOP-92, in the assay on KM-20L2, in the assay on NCI-H23, in the assay on Malme-3M, with NCI-H460 and in the assay on M14 was > 100 µM (inactive) in each case. Besides, the GI50 with HCT-116, in the assay with SK-MEL-5, in the assay on SK-MEL-28, in the assay with OVCAR-5, in the assay with KM12 and in the assay on COLO 205 was > 100 µM (inactive) throughout.
For the compound `O=C(O)CCC1c2[nH]c3ccccc3c2CCN1Cc1ccccc1` (centres undefined), the GI50 in the assay on HCC 2998 is > 100 µM (inactive); with SF-295, > 100 µM (inactive); in the assay on HCT-15, > 100 µM; in the assay with 786-0 it was > 100 µM (inactive); in the assay with SF-539, > 100 µM (inactive); in the assay on K562, > 100 µM (inactive). For the same compound, the GI50 with HOP-92, in the assay on KM-20L2, with NCI-H23, in the assay on Malme-3M, in the assay with NCI-H460 and with M14 was > 100 µM (inactive) in each case. Moreover, the GI50 in the assay on HCT-116, with SK-MEL-5, in the assay with SK-MEL-28, in the assay with OVCAR-5, in the assay on KM12 and with COLO 205 was > 100 µM (inactive) each time.
In the case of `O=C1NC(=O)C(=O)C(c2nc3ccccc3s2)C1=O`, the GI50 with HCC 2998 was > 100 µM (inactive); in the assay on SF-295, > 100 µM (inactive); with HCT-15, > 100 µM; in the assay with 786-0 it was > 100 µM (inactive); in the assay with SF-539 it was > 100 µM (inactive); in the assay on HOP-92, > 100 µM (inactive). Also, the GI50 in the assay on KM-20L2, with NCI-H23, in the assay on Malme-3M, in the assay with NCI-H460, in the assay with M14 and in the assay on HCT-116 was > 100 µM (inactive) in each case. The GI50 in the assay with SK-MEL-5, with SK-MEL-28, with KM12 and with COLO 205 was > 100 µM (inactive) each time.
